What was measured:
AURKB = biological target: T1, AURKB (Homo sapiens, UniProt Q96GD4); test: Millipore kinase panel; type: biochemical; details: read-out: % Control
T1 construct: purchased Millipore KinaseProfiler (kinases); Cerep (receptors and ion channels)

δ2 (DOP) (h) = biological target: T2, δ2 (DOP) (h) (Homo sapiens, UniProt P41143); test: CEREP binding panel; details: agonist radioligand, read-out: % Inhibition of Control Specific Binding
T2 construct: purchased Millipore KinaseProfiler (kinases); Cerep (receptors and ion channels)
T2 sequence (P41143 whole entry): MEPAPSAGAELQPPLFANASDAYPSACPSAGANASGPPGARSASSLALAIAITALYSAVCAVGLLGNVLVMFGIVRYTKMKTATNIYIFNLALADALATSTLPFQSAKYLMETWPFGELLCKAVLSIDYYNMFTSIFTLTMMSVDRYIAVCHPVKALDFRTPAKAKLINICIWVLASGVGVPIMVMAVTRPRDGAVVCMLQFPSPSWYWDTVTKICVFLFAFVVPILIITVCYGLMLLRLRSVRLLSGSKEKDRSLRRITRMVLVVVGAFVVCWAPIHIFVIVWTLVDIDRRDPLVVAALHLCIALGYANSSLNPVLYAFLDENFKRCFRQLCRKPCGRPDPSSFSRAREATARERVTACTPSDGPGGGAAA

SRC = biological target: T3, SRC (Homo sapiens, UniProt P12931); test: Millipore kinase panel; type: biochemical; details: read-out: % Control
T3 construct: purchased Millipore KinaseProfiler (kinases); Cerep (receptors and ion channels)

EEF-2K = biological target: T4, EEF-2K (Homo sapiens, UniProt O00418); test: Millipore kinase panel; type: biochemical; details: read-out: % Control
T4 construct: purchased Millipore KinaseProfiler (kinases); Cerep (receptors and ion channels)

ASK1 = biological target: T5, ASK1 (Homo sapiens, UniProt Q99683); test: Millipore kinase panel; type: biochemical; details: read-out: % Control
T5 construct: purchased Millipore KinaseProfiler (kinases); Cerep (receptors and ion channels)

5-HT2A (h) = biological target: T6, 5-HT2A (h) (Homo sapiens, UniProt P28223); test: CEREP binding panel; details: antagonist radioligand, read-out: % Inhibition of Control Specific Binding
T6 construct: purchased Millipore KinaseProfiler (kinases); Cerep (receptors and ion channels)

MTOR = biological target: T7, MTOR (Homo sapiens, UniProt P42345); test: Millipore kinase panel; type: biochemical; details: read-out: % Control
T7 construct: purchased Millipore KinaseProfiler (kinases); Cerep (receptors and ion channels)

MSK2 = biological target: T8, MSK2 (Homo sapiens, UniProt O75676); test: Millipore kinase panel; type: biochemical; details: read-out: % Control
T8 construct: purchased Millipore KinaseProfiler (kinases); Cerep (receptors and ion channels)

JNK1ALPHA1 = biological target: T9, JNK1ALPHA1 (Homo sapiens, UniProt P45983); test: Millipore kinase panel; type: biochemical; details: read-out: % Control
T9 construct: purchased Millipore KinaseProfiler (kinases); Cerep (receptors and ion channels)

β1 (h) = biological target: T10, β1 (h) (Homo sapiens, UniProt P08588); test: CEREP binding panel; details: agonist radioligand, read-out: % Inhibition of Control Specific Binding
T10 construct: purchased Millipore KinaseProfiler (kinases); Cerep (receptors and ion channels)

TRKA = biological target: T11, TRKA (Homo sapiens, UniProt P04629); test: Millipore kinase panel; type: biochemical; details: read-out: % Control
T11 construct: purchased Millipore KinaseProfiler (kinases); Cerep (receptors and ion channels)

TEC ACTIVATED = biological target: T12, TEC ACTIVATED (Homo sapiens, UniProt P42680); test: Millipore kinase panel; type: biochemical; details: read-out: % Control
T12 construct: purchased Millipore KinaseProfiler (kinases); Cerep (receptors and ion channels)

A3 (h) = biological target: T13, A3 (h) (Homo sapiens, UniProt P0DMS8); test: CEREP binding panel; details: agonist radioligand, read-out: % Inhibition of Control Specific Binding
T13 construct: purchased Millipore KinaseProfiler (kinases); Cerep (receptors and ion channels)

FLT3 = biological target: T14, FLT3 (Homo sapiens, UniProt P36888); test: Millipore kinase panel; type: biochemical; details: read-out: % Control
T14 construct: purchased Millipore KinaseProfiler (kinases); Cerep (receptors and ion channels)

VPAC1 (VIP1) (h) = biological target: T15, VPAC1 (VIP1) (h) (Homo sapiens, UniProt P32241); test: CEREP binding panel; details: agonist radioligand, read-out: % Inhibition of Control Specific Binding
T15 construct: purchased Millipore KinaseProfiler (kinases); Cerep (receptors and ion channels)

PLK1 = biological target: T16, PLK1 (Homo sapiens, UniProt P53350); test: Millipore kinase panel; type: biochemical; details: read-out: % Control
T16 construct: purchased Millipore KinaseProfiler (kinases); Cerep (receptors and ion channels)

IRAK4 = biological target: T17, IRAK4 (Homo sapiens, UniProt Q9NWZ3); test: Millipore kinase panel; type: biochemical; details: read-out: % Control
T17 construct: purchased Millipore KinaseProfiler (kinases); Cerep (receptors and ion channels)

PRAK = biological target: T18, PRAK (Homo sapiens, UniProt Q8IW41); test: Millipore kinase panel; type: biochemical; details: read-out: % Control
T18 construct: purchased Millipore KinaseProfiler (kinases); Cerep (receptors and ion channels)

ALK4 = biological target: T19, ALK4 (Homo sapiens, UniProt P36896); test: Millipore kinase panel; type: biochemical; details: read-out: % Control
T19 construct: purchased Millipore KinaseProfiler (kinases); Cerep (receptors and ion channels)
T19 sequence (P36896 24-505): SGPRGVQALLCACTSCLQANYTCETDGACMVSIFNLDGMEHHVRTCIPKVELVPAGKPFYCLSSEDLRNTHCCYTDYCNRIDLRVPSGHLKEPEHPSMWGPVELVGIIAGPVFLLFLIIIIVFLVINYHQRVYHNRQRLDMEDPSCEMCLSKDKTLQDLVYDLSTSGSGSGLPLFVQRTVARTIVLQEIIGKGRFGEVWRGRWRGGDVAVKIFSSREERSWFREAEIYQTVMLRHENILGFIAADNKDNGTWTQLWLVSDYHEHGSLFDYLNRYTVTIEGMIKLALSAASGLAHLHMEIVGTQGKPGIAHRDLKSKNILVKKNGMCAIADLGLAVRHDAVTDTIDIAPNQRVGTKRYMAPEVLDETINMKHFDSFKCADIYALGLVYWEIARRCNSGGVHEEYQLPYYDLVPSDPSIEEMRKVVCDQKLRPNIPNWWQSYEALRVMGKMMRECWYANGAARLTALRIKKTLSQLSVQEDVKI

FYN = biological target: T20, FYN (Homo sapiens, UniProt P06241); test: Millipore kinase panel; type: biochemical; details: read-out: % Control
T20 construct: purchased Millipore KinaseProfiler (kinases); Cerep (receptors and ion channels)

IKKALPHA = biological target: T21, IKKALPHA (Homo sapiens, UniProt O15111); test: Millipore kinase panel; type: biochemical; details: read-out: % Control
T21 construct: purchased Millipore KinaseProfiler (kinases); Cerep (receptors and ion channels)

FER = biological target: T22, FER (Homo sapiens, UniProt P16591); test: Millipore kinase panel; type: biochemical; details: read-out: % Control
T22 construct: purchased Millipore KinaseProfiler (kinases); Cerep (receptors and ion channels)

5-HT5a (h) = biological target: T23, 5-HT5a (h) (Homo sapiens, UniProt P47898); test: CEREP binding panel; details: agonist radioligand, read-out: % Inhibition of Control Specific Binding
T23 construct: purchased Millipore KinaseProfiler (kinases); Cerep (receptors and ion channels)

κ (KOP) = biological target: T24, κ (KOP) (Rattus norvegicus, UniProt P34975); test: CEREP binding panel; details: agonist radioligand, read-out: % Inhibition of Control Specific Binding
T24 construct: purchased Millipore KinaseProfiler (kinases); Cerep (receptors and ion channels)

LKB1 = biological target: T25, LKB1 (Homo sapiens, UniProt Q15831); test: Millipore kinase panel; type: biochemical; details: read-out: % Control
T25 construct: purchased Millipore KinaseProfiler (kinases); Cerep (receptors and ion channels)

HASPIN = biological target: T26, HASPIN (Homo sapiens, UniProt Q8TF76); test: Millipore kinase panel; type: biochemical; details: read-out: % Control
T26 construct: purchased Millipore KinaseProfiler (kinases); Cerep (receptors and ion channels)
T26 sequence (Q8TF76 whole entry): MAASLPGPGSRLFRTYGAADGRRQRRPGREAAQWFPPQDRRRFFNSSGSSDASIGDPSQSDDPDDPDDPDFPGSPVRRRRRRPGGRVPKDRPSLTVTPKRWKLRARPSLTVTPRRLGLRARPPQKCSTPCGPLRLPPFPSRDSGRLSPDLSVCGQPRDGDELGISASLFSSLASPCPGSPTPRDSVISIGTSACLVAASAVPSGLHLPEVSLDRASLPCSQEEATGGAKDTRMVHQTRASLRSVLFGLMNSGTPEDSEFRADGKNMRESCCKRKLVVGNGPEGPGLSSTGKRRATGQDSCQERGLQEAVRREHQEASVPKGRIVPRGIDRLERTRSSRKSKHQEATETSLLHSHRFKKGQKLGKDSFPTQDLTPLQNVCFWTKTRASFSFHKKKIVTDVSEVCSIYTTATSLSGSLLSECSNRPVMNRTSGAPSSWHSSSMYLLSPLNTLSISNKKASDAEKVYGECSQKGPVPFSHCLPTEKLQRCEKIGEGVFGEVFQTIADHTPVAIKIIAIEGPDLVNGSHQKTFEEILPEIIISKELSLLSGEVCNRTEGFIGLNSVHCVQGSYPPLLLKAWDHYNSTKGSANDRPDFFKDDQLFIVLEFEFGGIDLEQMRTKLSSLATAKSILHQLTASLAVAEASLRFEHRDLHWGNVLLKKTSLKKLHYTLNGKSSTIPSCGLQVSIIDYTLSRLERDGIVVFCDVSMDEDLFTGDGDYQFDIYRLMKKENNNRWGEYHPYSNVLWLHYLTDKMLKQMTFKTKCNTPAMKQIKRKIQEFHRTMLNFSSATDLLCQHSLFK

PTK5 = biological target: T27, PTK5 (Homo sapiens, UniProt P42685); test: Millipore kinase panel; type: biochemical; details: read-out: % Control
T27 construct: purchased Millipore KinaseProfiler (kinases); Cerep (receptors and ion channels)

RSK3 = biological target: T28, RSK3 (Homo sapiens, UniProt Q15349); test: Millipore kinase panel; type: biochemical; details: read-out: % Control
T28 construct: purchased Millipore KinaseProfiler (kinases); Cerep (receptors and ion channels)

IGF-1R, ACTIVATED = biological target: T29, IGF-1R, ACTIVATED (Homo sapiens, UniProt P08069); test: Millipore kinase panel; type: biochemical; details: read-out: % Control
T29 construct: purchased Millipore KinaseProfiler (kinases); Cerep (receptors and ion channels)
T29 sequence (P08069 31-1367): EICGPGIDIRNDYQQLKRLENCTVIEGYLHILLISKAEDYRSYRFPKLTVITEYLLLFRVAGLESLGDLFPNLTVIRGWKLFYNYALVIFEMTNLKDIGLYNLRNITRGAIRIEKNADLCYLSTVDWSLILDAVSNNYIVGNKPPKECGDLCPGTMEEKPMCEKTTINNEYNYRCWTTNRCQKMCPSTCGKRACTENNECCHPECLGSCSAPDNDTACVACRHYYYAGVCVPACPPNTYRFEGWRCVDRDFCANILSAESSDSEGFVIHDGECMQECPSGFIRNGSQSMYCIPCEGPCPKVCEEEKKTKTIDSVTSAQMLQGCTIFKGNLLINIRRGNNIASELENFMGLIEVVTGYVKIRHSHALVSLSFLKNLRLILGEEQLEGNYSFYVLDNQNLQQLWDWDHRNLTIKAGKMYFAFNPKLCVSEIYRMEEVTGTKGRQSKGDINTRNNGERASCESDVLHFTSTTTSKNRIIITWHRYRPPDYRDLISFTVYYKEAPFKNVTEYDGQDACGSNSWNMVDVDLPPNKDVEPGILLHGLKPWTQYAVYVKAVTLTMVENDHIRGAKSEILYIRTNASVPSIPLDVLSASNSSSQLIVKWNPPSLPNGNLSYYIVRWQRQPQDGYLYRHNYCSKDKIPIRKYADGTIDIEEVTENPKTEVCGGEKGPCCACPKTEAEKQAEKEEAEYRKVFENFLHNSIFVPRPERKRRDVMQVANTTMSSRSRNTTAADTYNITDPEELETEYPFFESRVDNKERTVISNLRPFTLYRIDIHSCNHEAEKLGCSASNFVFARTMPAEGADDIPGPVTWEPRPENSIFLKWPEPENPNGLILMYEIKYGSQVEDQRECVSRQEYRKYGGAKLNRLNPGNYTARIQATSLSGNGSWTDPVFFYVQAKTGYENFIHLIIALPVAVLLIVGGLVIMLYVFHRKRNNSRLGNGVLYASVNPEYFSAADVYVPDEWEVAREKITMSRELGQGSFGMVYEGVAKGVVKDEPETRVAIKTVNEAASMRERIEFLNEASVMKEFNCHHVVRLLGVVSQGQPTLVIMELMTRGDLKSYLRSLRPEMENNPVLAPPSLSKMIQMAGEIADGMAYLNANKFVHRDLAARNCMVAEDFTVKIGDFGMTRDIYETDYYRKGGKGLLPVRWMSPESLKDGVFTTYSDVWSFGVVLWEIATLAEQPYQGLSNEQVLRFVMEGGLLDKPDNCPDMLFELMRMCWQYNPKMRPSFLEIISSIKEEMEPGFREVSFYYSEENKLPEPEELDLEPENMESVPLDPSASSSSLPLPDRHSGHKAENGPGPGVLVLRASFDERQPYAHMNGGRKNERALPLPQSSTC

NTS1 (NT1) (h) = biological target: T30, NTS1 (NT1) (h) (Homo sapiens, UniProt P30989); test: CEREP binding panel; details: agonist radioligand, read-out: % Inhibition of Control Specific Binding
T30 construct: purchased Millipore KinaseProfiler (kinases); Cerep (receptors and ion channels)
T30 sequence (P30989 whole entry): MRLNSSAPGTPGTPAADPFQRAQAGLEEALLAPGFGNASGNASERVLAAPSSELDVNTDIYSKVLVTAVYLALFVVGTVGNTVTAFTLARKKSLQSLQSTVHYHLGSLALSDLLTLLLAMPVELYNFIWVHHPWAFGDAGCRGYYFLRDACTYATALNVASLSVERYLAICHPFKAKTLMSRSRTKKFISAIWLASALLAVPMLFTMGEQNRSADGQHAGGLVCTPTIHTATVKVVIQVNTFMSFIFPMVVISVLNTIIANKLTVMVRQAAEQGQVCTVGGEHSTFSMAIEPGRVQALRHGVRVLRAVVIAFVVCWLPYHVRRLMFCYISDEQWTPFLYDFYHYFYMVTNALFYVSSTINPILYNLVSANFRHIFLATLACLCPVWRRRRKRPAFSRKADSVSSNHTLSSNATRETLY

CXCR2 (IL-8B) (h) = biological target: T31, CXCR2 (IL-8B) (h) (Homo sapiens, UniProt P25025); test: CEREP binding panel; details: agonist radioligand, read-out: % Inhibition of Control Specific Binding
T31 construct: purchased Millipore KinaseProfiler (kinases); Cerep (receptors and ion channels)

MNK2 = biological target: T32, MNK2 (Homo sapiens, UniProt Q9HBH9); test: Millipore kinase panel; type: biochemical; details: read-out: % Control
T32 construct: purchased Millipore KinaseProfiler (kinases); Cerep (receptors and ion channels)

MKK4 = test: Millipore kinase panel; type: biochemical; details: 1 μM, ATP at Km
PIM-1 = biological target: T33, PIM-1 (Homo sapiens, UniProt P11309); test: Millipore kinase panel; type: biochemical; details: read-out: % Control
T33 construct: purchased Millipore KinaseProfiler (kinases); Cerep (receptors and ion channels)
T33 sequence (P11309 whole entry): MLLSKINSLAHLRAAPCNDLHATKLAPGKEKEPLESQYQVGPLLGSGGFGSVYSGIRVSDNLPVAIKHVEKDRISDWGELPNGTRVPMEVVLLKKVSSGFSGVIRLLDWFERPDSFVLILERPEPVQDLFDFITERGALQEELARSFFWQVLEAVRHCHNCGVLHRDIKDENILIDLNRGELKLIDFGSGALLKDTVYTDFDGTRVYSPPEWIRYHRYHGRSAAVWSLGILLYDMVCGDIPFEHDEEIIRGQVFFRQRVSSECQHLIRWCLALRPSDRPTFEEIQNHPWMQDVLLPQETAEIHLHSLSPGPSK

LIMK1 = biological target: T34, LIMK1 (Homo sapiens, UniProt P53667); test: Millipore kinase panel; type: biochemical; details: read-out: % Control
T34 construct: purchased Millipore KinaseProfiler (kinases); Cerep (receptors and ion channels)

CDK3/CYCLINE = biological target: T35, CDK3/CYCLINE (Homo sapiens, UniProt Q00526); test: Millipore kinase panel; type: biochemical; details: read-out: % Control
T35 construct: purchased Millipore KinaseProfiler (kinases); Cerep (receptors and ion channels)
T35 sequence (Q00526 whole entry): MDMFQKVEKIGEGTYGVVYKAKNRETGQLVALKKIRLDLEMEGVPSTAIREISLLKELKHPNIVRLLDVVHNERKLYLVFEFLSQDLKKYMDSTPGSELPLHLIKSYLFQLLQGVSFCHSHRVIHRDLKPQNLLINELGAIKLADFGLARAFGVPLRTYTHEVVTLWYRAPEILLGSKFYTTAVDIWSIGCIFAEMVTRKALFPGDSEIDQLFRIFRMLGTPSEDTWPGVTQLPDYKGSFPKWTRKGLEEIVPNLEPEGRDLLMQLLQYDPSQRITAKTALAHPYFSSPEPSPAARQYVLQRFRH
T35 sequence (P24864 whole entry partner): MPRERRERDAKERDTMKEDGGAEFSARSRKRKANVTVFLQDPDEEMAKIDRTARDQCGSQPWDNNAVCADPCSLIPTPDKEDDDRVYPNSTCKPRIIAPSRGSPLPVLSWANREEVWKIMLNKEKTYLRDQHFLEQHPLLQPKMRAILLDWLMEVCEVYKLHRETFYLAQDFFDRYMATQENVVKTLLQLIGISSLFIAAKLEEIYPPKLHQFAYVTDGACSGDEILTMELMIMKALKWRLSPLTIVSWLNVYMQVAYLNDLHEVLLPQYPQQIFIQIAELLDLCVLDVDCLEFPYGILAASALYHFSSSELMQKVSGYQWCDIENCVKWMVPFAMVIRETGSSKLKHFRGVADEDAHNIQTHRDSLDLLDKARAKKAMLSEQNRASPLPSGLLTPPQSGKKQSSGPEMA

AT1 (h) = biological target: T36, AT1 (h) (Homo sapiens, UniProt P30556); test: CEREP binding panel; details: antagonist radioligand, read-out: % Inhibition of Control Specific Binding
T36 construct: purchased Millipore KinaseProfiler (kinases); Cerep (receptors and ion channels)

BMX = biological target: T37, BMX (Homo sapiens, UniProt P51813); test: Millipore kinase panel; type: biochemical; details: read-out: % Control
T37 construct: purchased Millipore KinaseProfiler (kinases); Cerep (receptors and ion channels)

YES = biological target: T38, YES (Homo sapiens, UniProt P07947); test: Millipore kinase panel; type: biochemical; details: read-out: % Control
T38 construct: purchased Millipore KinaseProfiler (kinases); Cerep (receptors and ion channels)

SGK2 = biological target: T39, SGK2 (Homo sapiens, UniProt Q9HBY8); test: Millipore kinase panel; type: biochemical; details: read-out: % Control
T39 construct: purchased Millipore KinaseProfiler (kinases); Cerep (receptors and ion channels)
T39 sequence (Q9HBY8 whole entry): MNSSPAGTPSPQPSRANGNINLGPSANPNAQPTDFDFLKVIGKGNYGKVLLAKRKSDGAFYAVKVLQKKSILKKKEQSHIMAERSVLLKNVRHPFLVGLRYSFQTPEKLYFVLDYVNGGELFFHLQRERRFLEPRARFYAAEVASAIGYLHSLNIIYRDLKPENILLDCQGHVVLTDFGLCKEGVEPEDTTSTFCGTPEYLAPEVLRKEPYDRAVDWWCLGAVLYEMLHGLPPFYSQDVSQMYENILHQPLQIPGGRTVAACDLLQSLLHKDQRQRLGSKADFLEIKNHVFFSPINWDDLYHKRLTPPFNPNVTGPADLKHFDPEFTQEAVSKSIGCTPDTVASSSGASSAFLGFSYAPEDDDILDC

EPHB3 = biological target: T40, EPHB3 (Homo sapiens, UniProt P54753); test: Millipore kinase panel; type: biochemical; details: read-out: % Control
T40 construct: purchased Millipore KinaseProfiler (kinases); Cerep (receptors and ion channels)

μ (MOP) (h) = biological target: T41, μ (MOP) (h) (Homo sapiens, UniProt P35372); test: CEREP binding panel; details: agonist radioligand, read-out: % Inhibition of Control Specific Binding
T41 construct: purchased Millipore KinaseProfiler (kinases); Cerep (receptors and ion channels)

GABA (non-selective) = test: CEREP binding panel; details: 10 μM, agonist radioligand

O=C1NCCC12CCN(c1c(Cl)cncc1-c1ccc(N3CCOCC3)cc1)CC2 [Compound 44, 8-(3-Chloro-5-(4-morpholin-4-ylphenyl)pyridin-4-yl)-2,8-diazaspiro[4.5]decan-1-one]
remaining activity at 1 µM (AURKB): -1% | inhibition at 10 µM (δ2 (DOP) (h)): 12% | remaining activity at 1 µM (SRC): 4% | remaining activity at 1 µM (EEF-2K): -8% | remaining activity at 1 µM (ASK1): -1% | inhibition at 10 µM (5-HT2A (h)): -1% | remaining activity at 1 µM (MTOR): 18% | remaining activity at 1 µM (MSK2): 0% | remaining activity at 1 µM (JNK1ALPHA1): 0% | inhibition at 10 µM (β1 (h)): 9% | remaining activity at 1 µM (TRKA): 17% | remaining activity at 1 µM (TEC ACTIVATED): 4% | inhibition at 10 µM (A3 (h)): -7% | remaining activity at 1 µM (FLT3): -7% | inhibition at 10 µM (VPAC1 (VIP1) (h)): 0% | remaining activity at 1 µM (PLK1): 14% | remaining activity at 1 µM (IRAK4): 2% | remaining activity at 1 µM (PRAK): -8% | remaining activity at 1 µM (ALK4): 14% | remaining activity at 1 µM (FYN): 10% | remaining activity at 1 µM (IKKALPHA): 22% | remaining activity at 1 µM (FER): 11% | inhibition at 10 µM (5-HT5a (h)): 11% | inhibition at 10 µM (κ (KOP)): 42% | remaining activity at 1 µM (LKB1): 7% | remaining activity at 1 µM (HASPIN): 21% | remaining activity at 1 µM (PTK5): 0% | remaining activity at 1 µM (RSK3): 1% | remaining activity at 1 µM (IGF-1R, ACTIVATED): 3% | inhibition at 10 µM (NTS1 (NT1) (h)): -4% | inhibition at 10 µM (CXCR2 (IL-8B) (h)): -2% | remaining activity at 1 µM (MNK2): 2% | % Control (MKK4): 46% | remaining activity at 1 µM (PIM-1): 1% | remaining activity at 1 µM (LIMK1): -3% | remaining activity at 1 µM (CDK3/CYCLINE): -7% | inhibition at 10 µM (AT1 (h)): 2% | remaining activity at 1 µM (BMX): -2% | remaining activity at 1 µM (YES): -11% | remaining activity at 1 µM (SGK2): -5% | remaining activity at 1 µM (EPHB3): 17% | inhibition at 10 µM (μ (MOP) (h)): 9% | % Inhibition of Control Specific Binding (GABA (non-selective)): 10%

Reference: publication PMC4767141, “Discovery of Potent, Orally Bioavailable, Small-Molecule Inhibitors of WNT Signaling from a Cell-Based Pathway Screen” (Journal of Medicinal Chemistry, 2015)
